Assay in all cases: MIC, broth-microdilution (CLSI VET01-A4)
Holding throughout (format): cell-based

In experiment [1] the test system is Mannheimia haemolytica MH 10720 (154, BRD field isolate). As to conditions: Mannheimia haemolytica MH 10720; for MIC: read-out: MIC MH 10720. In short, it runs like this: (§1)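 Broth microdilution per CLSI VET01-A4 using doubling dilution series of test compound; results interpreted per CLSI VET01-S3. MIC recorded as lowest concentration giving no turbidity visible to the unaided eye.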

Experiment [2] relates to Mannheimia haemolytica MH 12587 (1071, BRD field isolate, macrolide-resistance: erm+, E+). Conditions: for MIC MH 12587: Mannheimia haemolytica MH 12587, macrolide-resistant. In short, it runs like this: as §1
The test system of experiment [3] is Pasteurella multocida PM 10775 (080130003051, BRD field isolate). As to conditions: Pasteurella multocida PM 10775. In short, it runs like this: as §1
The subject of experiment [4] is Pasteurella multocida PM 6267 (P 2225 (L386), reference strain, mouse infection strain). As to conditions: Pasteurella multocida PM 6267. In short, it runs like this: as §1
For experiment [5], the system named is Mannheimia haemolytica MH 6374 (ATCC 33396, reference strain). Conditions: Mannheimia haemolytica MH 6374, read-out: MIC MH 6374. In short, it runs like this: as §1
Experiment [6] deals with Mannheimia haemolytica MH 6357 (M7/2, reference strain, cattle infection strain). Conditions: Mannheimia haemolytica MH 6357; read-out: MIC MH 6357. In short, it runs like this:
as §1

Experiment [7] deals with Pasteurella multocida PM 6391 (ATCC 43137, reference strain). Conditions: Pasteurella multocida PM 6391; for MIC: read-out: MIC PM 6391. In short, it runs like this:
as §1

Experiment [8] deals with Pasteurella multocida PM 12080 (IV102277-0093, BRD field isolate). As to conditions: Pasteurella multocida PM 12080; for MIC: read-out: MIC PM 12080. In short, it runs like this: as §1
Experiment [9] deals with Mannheimia haemolytica MH 13093 (XB0472-6014.1, BRD field isolate). In short, it runs like this:
(§2)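 Broth microdilution per CLSI VET01-A4 using doubling dilution series of compound. MIC taken as the lowest concentration with no turbidity visible to the unaided eye, interpreted per CLSI VET01-S3.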

Experiment [10] concerns Mannheimia haemolytica MH 13065 (XB0446-6003.9, BRD field isolate). In short, it runs like this: as §2

What is called MIC is the smallest concentration in the dilution series that meets the test's criterion for growth inhibition.

In brackets after ≈: the same amount, converted by molar mass. Like-named read-outs stand apart in the source and are kept apart here. A value given as a limit tells only on which side of the number the result lay.

For `Cc1ccc(CNCc2ccc(C#Cc3ccc(C(=O)N[C@H](C(=O)NO)[C@@H](C)O)cc3)cc2)cc1` [Compound 261], the “MIC MH 10720” value in experiment [1] is listed as “<=0.1 μM”. Besides, in [2], the “MIC MH 12587” value is 0.8 µM (≈ 0.377 µg/mL). In addition, the “MIC PM 10775” value in [3] is “<=0.1 μM”. Further, the “MIC PM 6267” value in [4] is given as “<=0.1 μM”. The MIC in experiment [5] amounted to 0.2 µM (≈ 0.0943 µg/mL); in experiment [6], 0.2 µM (≈ 0.0943 µg/mL); in experiment [9], 0.8 µM (≈ 0.377 µg/mL); in experiment [10], 0.4 µM (≈ 0.189 µg/mL). Moreover, in experiment [7], the “MIC PM 6391” value is reported as “<=0.1 μM”. In experiment [8], the “MIC PM 12080” value is reported as “<=0.1 μM”.

Consider `C[C@@H](O)[C@H](NC(=O)c1ccc(C#Cc2ccc([N+](=O)[O-])cc2)cc1)C(=O)NO` [Compound 243, N-[(1S,2R)-2-hydroxy-1-(hydroxycarbamoyl)propyI]-4-[2-(4-nitrophenyl)ethynyl]benzamide], for which the MIC in [1] is at most 0.1 µM; in experiment [2] (Mannheimia haemolytica, read-out: MIC MH 12587) it was 0.8 µM (≈ 0.307 µg/mL); in [3] (read-out: MIC PM 10775), at most 0.1 µM; in experiment [4] (read-out: MIC PM 6267) it was at most 0.1 µM; in [5] (ATCC33396) it was 0.4 µM (≈ 0.153 µg/mL); in experiment [6] it was 0.2 µM (≈ 0.0767 µg/mL). The MIC in experiment [7] (ATCC43137) was 0.2 µM (≈ 0.0767 µg/mL); in experiment [8], 0.2 µM (≈ 0.0767 µg/mL); in [9], 1.6 µM (≈ 0.613 µg/mL); in [10], 0.4 µM (≈ 0.153 µg/mL).

Consider `CC(C)(N)C(NC(=O)c1ccc(C#Cc2ccc(CNCc3nccs3)cc2)cc1)C(=O)NO` (stereo not drawn) [Compound 562], for which the “MIC MH 10720” value in experiment [1] was “<=0.1 μM”. The “MIC MH 12587” value in experiment [2] was 1.6 µM (≈ 0.764 µg/mL). Further, in experiment [3], the “MIC PM 10775” value is given as “<=0.1 μM”. Also, the “MIC PM 6267” value in experiment [4] was “<=0.1 μM”. In addition, the MIC in experiment [5], in experiment [6], in experiment [9] and in experiment [10] was 0.8 µM (≈ 0.382 µg/mL) each time. The “MIC PM 6391” value in experiment [7] is given as “<=0.1 μM”. Also, in [8], the “MIC PM 12080” value is “<=0.1 μM”.

`C=CCNCc1ccc(C#Cc2ccc(C(=O)NC(C(=O)NO)C(C)(C)SC)cc2)cc1` (stereo not drawn) [C. 582]: the “MIC MH 10720” value in experiment [1] was “<=0.1 μM”. Further, in experiment [2], the “MIC MH 12587” value worked out at 1.6 µM (≈ 0.723 µg/mL). Moreover, the “MIC PM 10775” value in experiment [3] was “<=0.1 μM”. Also, the “MIC PM 6267” value in experiment [4] is “<=0.1 μM”. Also, the MIC in experiment [5] was found to be 0.8 µM (≈ 0.361 µg/mL); in experiment [6], 0.8 µM (≈ 0.361 µg/mL); in experiment [7] it was 0.4 µM (≈ 0.181 µg/mL); in experiment [8] it was 0.4 µM (≈ 0.181 µg/mL); in [9] it was 0.8 µM (≈ 0.361 µg/mL); in experiment [10] it was 0.8 µM (≈ 0.361 µg/mL).

Consider `C[C@@H](O)[C@H](NC(=O)c1ccc(C#Cc2ccc(CNCc3ccnc(Cl)c3)cc2)cc1)C(=O)NO` [Compound 257], for which, in experiment [1], the “MIC MH 10720” value was “<=0.1 μM”. Moreover, the “MIC MH 12587” value in experiment [2] worked out at 0.8 µM (≈ 0.394 µg/mL). Besides, in [3], the “MIC PM 10775” value is on record as “<=0.1 μM”. The “MIC PM 6267” value in experiment [4] is listed as “<=0.1 μM”. The MIC in experiment [5] turned out to be 0.2 µM (≈ 0.0986 µg/mL); in experiment [6] it was 0.2 µM (≈ 0.0986 µg/mL); in experiment [9], 0.4 µM (≈ 0.197 µg/mL); in experiment [10], 0.4 µM (≈ 0.197 µg/mL). In addition, the “MIC PM 6391” value in experiment [7] is on record as “<=0.1 μM”. Also, the “MIC PM 12080” value in experiment [8] is given as “<=0.1 μM”.

With `Cc1cnc(CNCc2ccc(C#Cc3ccc(C(=O)NC(C(=O)NO)C(C)(C)N)cc3)s2)o1` (racemic) [Compound 636], the “MIC MH 10720” value in experiment [1] is given as “<=0.1 μM”. Besides, the “MIC MH 12587” value in experiment [2] was determined as 1.6 µM (≈ 0.771 µg/mL). For the same compound, the “MIC PM 10775” value in experiment [3] is reported as “<=0.1 μM”. In addition, the “MIC PM 6267” value in experiment [4] is reported as “<=0.1 μM”. The MIC in experiment [5] is given as 0.4 µM (≈ 0.193 µg/mL); in experiment [6] it was 0.8 µM (≈ 0.385 µg/mL); in experiment [7], 0.4 µM (≈ 0.193 µg/mL); in experiment [8], 0.4 µM (≈ 0.193 µg/mL); in [9], 0.8 µM (≈ 0.385 µg/mL); in experiment [10] it was 1.6 µM (≈ 0.771 µg/mL).

`CC(C)(C(NC(=O)c1ccc(C#Cc2ccc(CNCc3cccnc3)cc2)cc1)C(=O)NO)S(C)(=O)=O` (stereo not drawn) [C. 613]: in experiment [1], the “MIC MH 10720” value is on record as “<=0.1 μM”. Also, in experiment [2], the “MIC MH 12587” value amounted to 1.6 µM (≈ 0.855 µg/mL). In addition, the “MIC PM 10775” value in [3] was “<=0.1 μM”. In addition, in experiment [4], the “MIC PM 6267” value is on record as “<=0.1 μM”. Further, the MIC in experiment [5] came out at 0.4 µM (≈ 0.214 µg/mL); in [6] it was 0.8 µM (≈ 0.428 µg/mL); in experiment [9], 0.8 µM (≈ 0.428 µg/mL); in experiment [10], 0.8 µM (≈ 0.428 µg/mL). Further, the “MIC PM 6391” value in experiment [7] is recorded as “<=0.1 μM”. Moreover, the “MIC PM 12080” value in experiment [8] is “<=0.1 μM”.

For `C#CCNCc1ccc(C#Cc2ccc(C(=O)NC(C(=O)NO)C(C)(C)N)cc2)cn1` (racemic) [Compound 647], the MIC in experiment [1] is on record as 0.4 µM (≈ 0.168 µg/mL); in [5], 0.8 µM (≈ 0.336 µg/mL); in [6], 1.6 µM (≈ 0.671 µg/mL); in [7] it was 0.4 µM (≈ 0.168 µg/mL); in experiment [8] it was 0.4 µM (≈ 0.168 µg/mL); in [9], 0.8 µM (≈ 0.336 µg/mL). In experiment [10], this compound yielded an MIC of 0.8 µM (≈ 0.336 µg/mL). Moreover, the “MIC MH 12587” value in [2] was found to be 1.6 µM (≈ 0.671 µg/mL). In experiment [3], the “MIC PM 10775” value is reported as “<=0.1 μM”. For the same compound, the “MIC PM 6267” value in experiment [4] is “<=0.1 μM”.

With `CC(C)([C@H](NC(=O)c1ccc(C#Cc2ccc(CNCc3ccnc(Cl)c3)cc2)cc1)C(=O)NO)S(C)(=O)=O` [Compound 614], the “MIC MH 10720” value in [1] was “<=0.1 μM”. In addition, the “MIC MH 12587” value in experiment [2] turned out to be 0.8 µM (≈ 0.455 µg/mL). The “MIC PM 10775” value in experiment [3] was “<=0.1 μM”. Moreover, in experiment [4], the “MIC PM 6267” value is recorded as “<=0.1 μM”. The MIC turned out to be 0.4 µM (≈ 0.228 µg/mL) in experiment [5], 0.4 µM (≈ 0.228 µg/mL) in experiment [6], 0.4 µM (≈ 0.228 µg/mL) in experiment [9] and 0.2 µM (≈ 0.114 µg/mL) in [10]. Also, the “MIC PM 6391” value in [7] was “<=0.1 μM”. The “MIC PM 12080” value in [8] was “<=0.1 μM”.

Values taken from US20230000813A1, “COMPOUND FOR THE TREATMENT OF BOVINE OR SWINE RESPIRATORY DISEASE” (Intervet Inc., priority 2016, published 2023).
